Assay results published in ChEMBL document CHEMBL1201862, “PubChem BioAssay data set” (2004).
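Exposure lasted 48 hours, with cells grown in 96-well plates and compounds tested at five concentrations. At the GI50, growth is halved.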 The source made the active and inactive calls. Cut-off read from the data, not from the text of the source: active = GI50 up to about 1.1 µM and inactive = higher.

Legend:
Experiment in all cases: DTP human tumour cell line panel, 48 h
[1] = system: DU-145
[2] = system: Hs-578T
[3] = system: DLD-1
[4] = system: DMS-114
[5] = system: KM-20L2
[6] = system: LXFL 529
[7] = system: SNB-78
[8] = system: HOP-18

Row | Structure (SMILES) | GI50 [1] | GI50 [2] | further results
1 | Cc1c(O)c(=O)ccn1CCc1c[nH]c2ccccc12 | 6.44 µM (inactive) | 11.7 µM (inactive) | 
2 | Cc1nnc2n1-c1ccccc1C(=S)N1CSCC21 (stereo not drawn) | > 100 µM (inactive) | > 100 µM (inactive) | 
3 | CC12CCC(=O)N1c1cccnc1N2 (stereo not drawn) |  |  | GI50 [3]: > 100 µM (inactive); GI50 [4]: > 100 µM (inactive); GI50 [5]: > 100 µM (inactive); GI50 [6]: > 100 µM (inactive); GI50 [7]: > 100 µM (inactive)
4 | CCC1CC(C)C(O)/C=C/C=C/CC(C)OC(=O)CC(O)C(OC)C1OC1OC(C)CC(O)(C(C)=O)C1O (stereo not drawn) | 96.6 µM (inactive) | 19.7 µM (inactive) | 
5 | OCCC/N=C1N=C(Cl)/C(=C\c2ccccc2)N\1 | > 100 µM (inactive) | > 100 µM (inactive) | 
6 | COC1C(OC(=O)c2ccc(C)[nH]2)C(O)C(Oc2ccc3c(O)c(NC(=O)c4c[nH]c(C(=O)Nc5c(O)c6ccc(OC7OC(C)(C)C(OC)C(OC(=O)c8ccc(C)[nH]8)C7O)c(C)c6oc5=O)c4C)c(=O)oc3c2C)OC1(C)C (stereo not drawn) |  |  | GI50 [3]: 1.86 µM (inactive); GI50 [4]: 2.02 µM (inactive); GI50 [8]: 0.596 µM (active); GI50 [5]: 2.4 µM (inactive); GI50 [6]: 1.07 µM (active); GI50 [7]: 1.56 µM (inactive)
7 | O=c1c2nc[nH]c2n(-c2ccccc2)c(=S)n1-c1ccccc1 | > 100 µM (inactive) |  | 
8 | CCOC(=O)C(NC(=O)Nc1ccc(Cl)c(Cl)c1)C(F)(F)F (stereo not drawn) |  | 40.5 µM (inactive) | 
9 | COc1ccc(/C=C2\N=C(c3ccccc3)N(NC3=NC(=O)CC(=O)N3)C2=O)cc1 | > 100 µM (inactive) | > 100 µM (inactive) | 
10 | O=C1C=CC2(C=C1)O[C@H](COCc1ccccc1)[C@@H](COCc1ccccc1)O2 | 2.7 µM (inactive) | 1.75 µM (inactive) | 
11 | COc1cccc(Nc2nc(N)nc(N)c2N=O)c1 | 13.2 µM (inactive) | 14.5 µM (inactive) | 
12 | N#CC(c1cc(Cl)ncn1)c1nc2cc(C(F)(F)F)ccc2s1 (stereo not drawn) | 12.9 µM (inactive) |  | 
13 | O=C1c2ccccc2C(=O)C2C3c4ccccc4C(c4ccccc43)C12 (stereo not drawn) |  |  | GI50 [3]: > 100 µM (inactive); GI50 [4]: 16.8 µM (inactive); GI50 [5]: > 100 µM (inactive); GI50 [6]: 15.3 µM (inactive); GI50 [7]: 18.7 µM (inactive)
14 | CCOC(=O)c1sc2c(c1OC(=O)c1ccccc1)c(=O)n(-c1ccccc1)c(=S)n2-c1ccccc1 | 34.1 µM (inactive) | 23.6 µM (inactive) | 
15 | Cc1cccc(NS(=O)(=O)c2ccc3c(c2)OCCOCCOCCOCCO3)c1 | > 100 µM (inactive) | > 100 µM (inactive) | 
16 | CSc1c(CC(=O)Nc2ccc(Cl)cc2)n(Cc2ccccc2)c2ccccc12 | 38.5 µM (inactive) | 14.4 µM (inactive) | 
17 | CC1=Nc2ccccc2S(=O)(=O)N1 |  |  | GI50 [3]: > 100 µM (inactive); GI50 [4]: > 100 µM (inactive); GI50 [8]: > 100 µM (inactive); GI50 [5]: > 100 µM (inactive); GI50 [6]: > 100 µM (inactive); GI50 [7]: > 100 µM (inactive)
18 | O=C(O)C/N=C(\C(=N\CC(=O)O)c1ccccc1)c1ccccc1 | > 100 µM (inactive) | > 100 µM (inactive) | 

Row | Structure (SMILES) | GI50 [1] | GI50 [2] | further results
19 | CC(=O)NCCC1CN(C(=O)/C=C/I)c2ccccc21 (stereo not drawn) | 15.7 µM (inactive) | 9.66 µM (inactive) | 
20 | CN1CCN(Cn2nc(-c3ccccc3)n(/N=C/c3ccc(-c4ccc(Cl)cc4Cl)o3)c2=S)CC1 | 8.91 µM (inactive) | 7.91 µM (inactive) | 
21 | O=C(CCN1CCN(c2ccccc2)CC1)N1CCc2c([nH]c3ccccc23)C1c1cccnc1 (stereo not drawn) |  |  | GI50 [3]: 18.4 µM (inactive); GI50 [4]: 13.2 µM (inactive); GI50 [8]: 18.5 µM (inactive); GI50 [5]: 15.9 µM (inactive); GI50 [6]: 16.3 µM (inactive); GI50 [7]: 16.1 µM (inactive)
22 | CC1=Nc2ccccc2/C1=C\c1c(C)[nH]c2ccccc12 | 15.8 µM (inactive) | 8.63 µM (inactive) | 
23 | COc1ccc(Cl)cc1NC(=O)O/N=C(\Cl)C(C)C | 19.3 µM (inactive) | 23.7 µM (inactive) | 
24 | C/C(=N\C1CCCCC1)c1ccccc1O | > 100 µM (inactive) |  | 
25 | CCCCCCCCCCCCCCCCNc1nc(=O)n(C2OC(C)C(O)C2O)cc1F (stereo not drawn) | 19.5 µM (inactive) | 21.8 µM (inactive) | 
26 | Cc1ccc(S(=O)(=O)Nn2c(S)c(C#N)c(-c3ccc([N+](=O)[O-])cc3)c(C#N)c2=O)cc1 |  | 32.4 µM (inactive) | 
27 | O/N=C(/CC(O)(C(F)(F)F)C(F)(F)F)c1ccccc1 | > 10 µM (inactive) | > 10 µM (inactive) | 
28 | COc1ccc2nc3c([N+](=O)[O-])ccc4c3c(c2c1)N=CN4CCN(C)C | 4.09 µM (inactive) | 6.73 µM (inactive) | 
29 | C/C(Nc1ccc(Cl)cc1Cl)=C1/CCOC1=O | > 100 µM (inactive) | 33.6 µM (inactive) | 
30 | O=c1[nH][nH]c(=O)[nH]1 |  |  | GI50 [3]: > 100 µM (inactive); GI50 [5]: > 100 µM (inactive); GI50 [7]: > 100 µM (inactive)
31 | COc1cc2c(cc1OCCCCCN1C(=O)c3cccc4cccc(c34)C1=O)N=C[C@@H]1CCCN1C2=O | 0.255 µM (active) |  | 
32 | OCCNc1ncnc2c1ncn2C1OC(CO)C(O)C1O (stereo not drawn) | 19.3 µM (inactive) | 48 µM (inactive) | 
33 | CCOC(=O)c1[nH]c(Br)c(-c2ccc(OC)c(OC)c2)c1Br | 0.0476 µM (active) | 0.0369 µM (active) | 
34 | CC1=C(CO)C(=O)O[C@@H]([C@@H](C)[C@H]2CC[C@H]3[C@@H]4C[C@@H](O)[C@@]5(O)CC=CC(=O)[C@]5(C)[C@H]4CC[C@]23C)C1 [JABOROSALACTONE D] | 35.2 µM (inactive) | 35.7 µM (inactive) | 
35 | CO[C@H]1[C@@H](O)[C@@H](C)O[C@@H](O[C@H]2CC[C@@]3(C)[C@H](CC[C@@H]4[C@@H]3CC[C@]3(C)[C@@H](C5=CC(=O)OC5)CC[C@]43O)C2)[C@@H]1O [ODOROSIDE H] | 0.00377 µM (active) | 0.00454 µM (active) | 
